Here are results for 23 molecules from article PMC11508649 (International Journal of Molecular Sciences, 2024).

Where a name gives a salt, the structure may show the parent alone. Read-outs that look alike come from different tables or passages of the source. Marks after values point to notes of the source that are not given here.

By melting point is commonly meant the temperature of the solid-liquid transition. By Ki is commonly meant the dissociation constant of the complex between target and ligand, obtained from inhibition or displacement.

The target of data set [1] is T1, human serotonin transporter (Homo sapiens, UniProt P31645).
T1 construct: purchased PerkinElmer; host or cells: HEK-293
T1 sequence (P31645 whole entry): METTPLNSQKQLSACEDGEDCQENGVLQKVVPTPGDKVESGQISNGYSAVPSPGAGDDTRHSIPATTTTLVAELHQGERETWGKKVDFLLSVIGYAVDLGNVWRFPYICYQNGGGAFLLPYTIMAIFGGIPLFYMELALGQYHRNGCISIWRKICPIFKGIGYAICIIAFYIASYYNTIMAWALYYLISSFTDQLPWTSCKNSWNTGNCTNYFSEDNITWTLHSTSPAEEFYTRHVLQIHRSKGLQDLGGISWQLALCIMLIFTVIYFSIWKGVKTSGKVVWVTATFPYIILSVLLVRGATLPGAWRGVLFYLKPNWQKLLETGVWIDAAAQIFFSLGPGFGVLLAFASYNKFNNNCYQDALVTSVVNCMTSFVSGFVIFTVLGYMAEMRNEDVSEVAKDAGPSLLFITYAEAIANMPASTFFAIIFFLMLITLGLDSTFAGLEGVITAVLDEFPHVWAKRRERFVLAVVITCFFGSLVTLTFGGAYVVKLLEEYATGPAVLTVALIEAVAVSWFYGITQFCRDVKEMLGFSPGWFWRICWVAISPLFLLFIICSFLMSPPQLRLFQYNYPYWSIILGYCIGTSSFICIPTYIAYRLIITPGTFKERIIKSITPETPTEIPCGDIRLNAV
Briefly: Serotonin transporter radioligand binding ([3H]-imipramine, HEK-293 membranes). As to the method: (§1) Each compound was tested in 6 concentrations from 10–5 to 10–10 M (final concentration).
(§2) All assays were carried out in duplicates.

The target in data set [2] is T2, human 5-HT1A receptor (Homo sapiens, UniProt P08908).
T2 construct: purchased PerkinElmer; host or cells: CHO-K1
T2 sequence (P08908 1-422): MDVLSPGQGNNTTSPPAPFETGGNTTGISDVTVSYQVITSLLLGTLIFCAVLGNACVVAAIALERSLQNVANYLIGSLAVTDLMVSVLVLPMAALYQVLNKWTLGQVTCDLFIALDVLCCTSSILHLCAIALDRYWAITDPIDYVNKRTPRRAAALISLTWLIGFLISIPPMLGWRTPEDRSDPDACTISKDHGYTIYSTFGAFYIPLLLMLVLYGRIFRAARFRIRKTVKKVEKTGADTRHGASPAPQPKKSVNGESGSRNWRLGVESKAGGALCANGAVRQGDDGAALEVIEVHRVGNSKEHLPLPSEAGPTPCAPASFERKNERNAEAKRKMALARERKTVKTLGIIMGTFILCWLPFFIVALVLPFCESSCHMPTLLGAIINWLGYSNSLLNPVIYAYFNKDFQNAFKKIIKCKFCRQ
As to the kind of experiment: 5-HT1A receptor radioligand binding ([3H]-8-OH-DPAT, CHO-K1 membranes). The settings on record: displacement of [3H]-8-OH-DPAT, mean ± SEM of three experiments, NC = not converged. The method, then:
as §1, §2

Data set [3] has as its target α1-adrenoceptor. As to the kind of experiment: ADRA1 receptor binding assay ([3H]-prazosin, rat cortex). The settings on record: read-out: Ki ± SEM α1.
Data set [4] addresses human norepinephrine transporter (Homo sapiens, UniProt P23975). As to the kind of experiment: NET binding assay ([3H]-nisoxetine, MDCK membranes). The settings on record: at 1 µM.
Procedure: We performed radioligand binding assays using membranes from CHO-K1 cells stably transfected with human DAT and membranes from MDCK cells stably transfected with human NET. This was accomplished by assessing the displacement of [^3H]-WIN35,428 and [^3H]-nisoxetine from cloned human DAT and NET, respectively.
(§3) Ten-micromolar stock solutions of tested compounds were prepared in DMSO. […] Each compound was tested in a screening assay at final concentrations of 10 µM and 1 µM. Results were expressed as percent inhibition of radioligand binding. Reference compounds were tested in 8 concentrations from 10^−5 to 10^−12 M (final concentration).
Radioligand binding was performed using membranes from MDCK cells stably transfected with the human norepinephrine transporter (PerkinElmer, Waltham, MA, USA). All assays were carried out in duplicates. Measures of 50 µL of working solution of the tested compounds, 50 µL of [^3H]-nisoxetine (final concentration 4 nM) and 150 µL of diluted membranes (3 µg protein per well) prepared in assay buffer (50 mM Tris-HCl, pH 7.4, 120 mM NaCl; 5 mM KCl) were transferred to a polypropylene 96-well microplate using the 96-well pipetting station Rainin Liquidator (MettlerToledo, Beverly, MA, USA). […] The microplate was covered with sealing tape, mixed and incubated for 60 min at 4 °C. The reaction was terminated by rapid filtration through GF/C filter mate pre-soaked with 0.5% polyethyleneimine for 30 min. Ten rapid washes with 200 µL of 50 mM Tris buffer (4 °C, pH 7.4) were performed using the automated harvester system Harvester-96 MACH III FM (Tomtec, Hamden, CT, USA). […] Radioactivity was counted using a MicroBeta2 scintillation counter (PerkinElmer, Turku, Finland). Data were fitted to a one-site curve-fitting equation with Prism 5 (GraphPad Software), and Ki values were estimated using the Cheng–Prusoff equation.
Data set [5] addresses human dopamine transporter (Homo sapiens, UniProt Q01959). Briefly: DAT binding assay ([3H]-WIN 35,428, CHO-K1 membranes). The settings on record: for Selectivity Ratio hDAT/hSERT: ratio of Ki values.
Procedure: as §3
Radioligand binding was performed using membranes from CHO-K1 cells stably transfected with the human dopamine transporter (PerkinElmer, Waltham, MA, USA). All assays were carried out in duplicates. […] The microplate was covered with sealing tape, mixed and incubated for 120 min at 4 °C. The reaction was terminated by rapid filtration through GF/C filter mate pre-soaked with 0.5% polyethyleneimine for 30 min. Ten rapid washes with 200 µL of 50 mM Tris buffer (4 °C, pH 7.4) were performed using the automated harvester system Harvester-96 MACH III FM (Tomtec, Hamden, CT, USA). […] Radioactivity was counted using a MicroBeta2 scintillation counter (PerkinElmer, Turku, Finland). Data were fitted to a one-site curve-fitting equation with Prism 5 (GraphPad Software), and Ki values were estimated using the Cheng–Prusoff equation.
Data set [6] addresses T2, human 5-HT1A receptor. The settings on record: previously described 1H-indole analogues; read-out: Ki ± SEM 5-HT1A; cited from earlier work.
Data set [7] concerns the target T1, human serotonin transporter. The settings on record: previously described 1H-indole analogues; read-out: Ki ± SEM SERT; cited from earlier work.
Where [8] appears, read: displacement of [3H]-imipramine, HEK-293 membranes, mean ± SEM of three experiments, read-out: Ki ± SEM SERT.

human norepinephrine transporter, sequence (P23975 whole entry): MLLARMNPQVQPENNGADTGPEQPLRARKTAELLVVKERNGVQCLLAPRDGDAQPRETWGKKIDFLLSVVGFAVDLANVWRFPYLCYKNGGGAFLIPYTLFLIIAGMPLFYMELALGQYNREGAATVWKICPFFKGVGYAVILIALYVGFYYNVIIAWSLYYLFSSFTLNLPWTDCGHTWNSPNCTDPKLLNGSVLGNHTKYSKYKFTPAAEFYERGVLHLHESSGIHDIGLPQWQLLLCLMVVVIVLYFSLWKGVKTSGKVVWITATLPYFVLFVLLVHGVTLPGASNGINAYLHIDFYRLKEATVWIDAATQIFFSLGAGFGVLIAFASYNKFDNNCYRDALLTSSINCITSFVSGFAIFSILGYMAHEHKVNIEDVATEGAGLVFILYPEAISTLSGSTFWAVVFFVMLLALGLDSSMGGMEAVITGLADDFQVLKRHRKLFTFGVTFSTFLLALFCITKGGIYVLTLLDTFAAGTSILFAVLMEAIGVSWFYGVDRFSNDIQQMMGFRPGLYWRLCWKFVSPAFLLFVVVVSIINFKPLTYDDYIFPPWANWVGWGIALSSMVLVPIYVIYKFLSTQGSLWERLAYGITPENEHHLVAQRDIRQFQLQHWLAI
human dopamine transporter, sequence (Q01959 whole entry): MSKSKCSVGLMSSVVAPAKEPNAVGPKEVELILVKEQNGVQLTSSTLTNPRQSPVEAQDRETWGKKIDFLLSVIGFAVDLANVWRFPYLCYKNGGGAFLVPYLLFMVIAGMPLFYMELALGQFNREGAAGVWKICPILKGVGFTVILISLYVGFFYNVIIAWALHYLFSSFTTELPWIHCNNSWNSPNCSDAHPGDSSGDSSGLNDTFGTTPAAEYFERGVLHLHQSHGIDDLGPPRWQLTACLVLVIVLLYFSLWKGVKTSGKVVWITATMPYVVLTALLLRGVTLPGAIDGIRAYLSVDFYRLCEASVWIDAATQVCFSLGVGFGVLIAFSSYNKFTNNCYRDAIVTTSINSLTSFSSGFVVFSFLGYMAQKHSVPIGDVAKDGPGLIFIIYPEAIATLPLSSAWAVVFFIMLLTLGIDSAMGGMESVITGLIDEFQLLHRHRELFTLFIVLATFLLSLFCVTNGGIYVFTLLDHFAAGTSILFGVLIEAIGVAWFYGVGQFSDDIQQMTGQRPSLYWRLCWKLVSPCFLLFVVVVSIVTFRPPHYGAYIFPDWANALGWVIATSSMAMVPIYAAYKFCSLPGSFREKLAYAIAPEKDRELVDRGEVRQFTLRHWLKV

Take `O=C1CC(c2c[nH]c3ccccc23)C(=O)N1CCCN1CC=C(c2c[nH]c3ncccc23)CC1` (stereo not drawn) (as salt: hydrochloride) [Compound 5, 1-(3-(4-(1H-Pyrrolo[2,3-b]pyridin-3-yl)-3,6-dihydropyridin-1(2H)-yl)propyl)-3-(1H-indol-3-yl)pyrrolidine-2,5-dione]: the melting point fell in the range of 97 to 102 °C.

Turning to `COc1ccc2[nH]cc(C3CC(=O)N(CCCCN4CC=C(c5c[nH]c6ncccc56)CC4)C3=O)c2c1` (stereo not drawn) [Compound 7, 1-(4-(4-(1H-Pyrrolo[2,3-b]pyridin-3-yl)-3,6-dihydropyridin-1(2H)-yl)butyl)-3-(5-methoxy-1H-indol-3-yl)pyrrolidine-2,5-dione], the values for the Ki in data set [1] (setting [8]) and in data set [2] were 58.4 ± 4 nM and 824 ± 23.2 nM, respectively.

Molecule `COc1ccc2[nH]cc(C3CC(=O)N(CCN4CC=C(c5c[nH]c6ncccc56)CC4)C3=O)c2c1` (stereo not drawn) (as salt: hydrochloride) [Compound 9, 1-(2-(4-(1H-Pyrrolo[2,3-b]pyridin-3-yl)-3,6-dihydropyridin-1(2H)-yl)ethyl)-3-(5-methoxy-1H-indol-3-yl)pyrrolidine-2,5-dione] gave a melting point of 129 to 132 °C.

`COc1ccc2[nH]cc(C3CC(=O)N(CCN4CC=C(c5c[nH]c6ncccc56)CC4)C3=O)c2c1` (stereo not drawn) [Compound 9, 1-(2-(4-(1H-Pyrrolo[2,3-b]pyridin-3-yl)-3,6-dihydropyridin-1(2H)-yl)ethyl)-3-(5-methoxy-1H-indol-3-yl)pyrrolidine-2,5-dione]: the Ki in data set [3] came to 319 ± 10.2 nM; in data set [5], 335 ± 14.8 nM; in data set [1] (setting [8]) it was 92 ± 8 nM. Besides, the “hNET screening procedure, displacement %” value in data set [4] was 41% ^a. The “Selectivity Ratio hDAT/hSERT” value in data set [5] was found to be 3.6.

As for `O=C1CC(c2c[nH]c3ccc(F)cc23)C(=O)N1CCN1CC=C(c2c[nH]c3ncccc23)CC1` (stereo not drawn) [Compound 12, 1-(2-(4-(1H-Pyrrolo[2,3-b]pyridin-3-yl)-3,6-dihydropyridin-1(2H)-yl)ethyl)-3-(5-fluoro-1H-indol-3-yl)pyrrolidine-2,5-dione], the figures for the Ki in data set [3], in data set [5] and in data set [1] (setting [8]) were 456 ± 6 nM, 229 ± 21.4 nM and 252 ± 24 nM, respectively. Also, the “hNET screening procedure, displacement %” value in data set [4] is 42% ^a. Further, the “Selectivity Ratio hDAT/hSERT” value in data set [5] came to 0.9.

As for `O=C1CC(c2c[nH]c3ccccc23)C(=O)N1CCCN1CC=C(c2c[nH]c3ccccc23)CC1` (stereo not drawn) [Compound 14], the Ki is 161 ± 17.5 nM in data set [6] and 4 ± 0.1 nM in data set [7].

Take `O=C1CC(c2c[nH]c3ccc(F)cc23)C(=O)N1CCN1CC=C(c2c[nH]c3ncccc23)CC1` (stereo not drawn) (as salt: hydrochloride) [Compound 12, 1-(2-(4-(1H-Pyrrolo[2,3-b]pyridin-3-yl)-3,6-dihydropyridin-1(2H)-yl)ethyl)-3-(5-fluoro-1H-indol-3-yl)pyrrolidine-2,5-dione]: the melting point fell in the range of 250 to 252 °C.

For the molecule `COc1ccc2[nH]cc(C3CC(=O)N(CCCCN4CC=C(c5c[nH]c6ccccc56)CC4)C3=O)c2c1` (stereo not drawn) [Compound 16], the Ki in data set [6] is 30.4 ± 1.8 nM; in data set [7], 2.6 ± 0.3 nM.

For `O=C1CC(c2c[nH]c3ccc(F)cc23)C(=O)N1CCCCN1CC=C(c2c[nH]c3ncccc23)CC1` (stereo not drawn) (as salt: hydrochloride) [Compound 10, 1-(4-(4-(1H-Pyrrolo[2,3-b]pyridin-3-yl)-3,6-dihydropyridin-1(2H)-yl)butyl)-3-(5-fluoro-1H-indol-3-yl)pyrrolidine-2,5-dione], the melting point lay in the range of 98 to 102 °C.

Consider `O=C1CC(c2c[nH]c3ccccc23)C(=O)N1CCN1CC=C(c2c[nH]c3ccccc23)CC1` (stereo not drawn) [Compound 15], for which the Ki was 250 ± 6.8 nM in data set [6] and 33.8 ± 3.2 nM in data set [7].

`COc1ccc2[nH]cc(C3CC(=O)N(CCCCN4CC=C(c5c[nH]c6ncccc56)CC4)C3=O)c2c1` (stereo not drawn) (as salt: hydrochloride) [Compound 7, 1-(4-(4-(1H-Pyrrolo[2,3-b]pyridin-3-yl)-3,6-dihydropyridin-1(2H)-yl)butyl)-3-(5-methoxy-1H-indol-3-yl)pyrrolidine-2,5-dione] had a melting point of 140 to 144 °C.

For the molecule `COc1ccc2[nH]cc(C3CC(=O)N(CCN4CC=C(c5c[nH]c6ccccc56)CC4)C3=O)c2c1` (stereo not drawn) [Compound 18], the results for the Ki in data set [6] and in data set [7] were 348 ± 12.1 nM and 14.7 ± 1.5 nM, respectively.

`O=C1CC(c2c[nH]c3ccc(F)cc23)C(=O)N1CCCCN1CC=C(c2c[nH]c3ccccc23)CC1` (stereo not drawn) [Compound 19]: the Ki in data set [6] was 48.2 ± 2.9 nM; in data set [7], 33.3 ± 2.9 nM.

With `O=C1CC(c2c[nH]c3ccccc23)C(=O)N1CCN1CC=C(c2c[nH]c3ncccc23)CC1` (stereo not drawn) (as salt: hydrochloride) [Compound 6, 1-(2-(4-(1H-Pyrrolo[2,3-b]pyridin-3-yl)-3,6-dihydropyridin-1(2H)-yl)ethyl)-3-(1H-indol-3-yl)pyrrolidine-2,5-dione], the melting point fell in the range of 233 to 235 °C.

In the case of `O=C1CC(c2c[nH]c3ccccc23)C(=O)N1CCCCN1CC=C(c2c[nH]c3ccccc23)CC1` (stereo not drawn) [Compound 13], the Ki in data set [6] is 12.5 ± 1.7 nM; in data set [7], 11.3 ± 0.6 nM.

With `Cc1ccc(N(CC2=NCCN2)c2cccc(O)c2)cc1` [phentolamine, reference compound], the Ki in data set [3] is 11 ± 0.7 nM.

On to `O=C1CC(c2c[nH]c3ccc(F)cc23)C(=O)N1CCCCN1CC=C(c2c[nH]c3ncccc23)CC1` (stereo not drawn) [Compound 10, 1-(4-(4-(1H-Pyrrolo[2,3-b]pyridin-3-yl)-3,6-dihydropyridin-1(2H)-yl)butyl)-3-(5-fluoro-1H-indol-3-yl)pyrrolidine-2,5-dione], for which the Ki in data set [1] (setting [8]) is 77.6 ± 2.5 nM; in data set [2] it was 128 ± 12 nM.

On to `COc1ccc2[nH]cc(C3CC(=O)N(CCCN4CC=C(c5c[nH]c6ncccc56)CC4)C3=O)c2c1` (stereo not drawn) (as salt: hydrochloride) [Compound 8, 1-(3-(4-(1H-Pyrrolo[2,3-b]pyridin-3-yl)-3,6-dihydropyridin-1(2H)-yl)propyl)-3-(5-methoxy-1H-indol-3-yl)pyrrolidine-2,5-dione], for which the melting point lay in the range of 111 to 115 °C.

As to `O=C1CC(c2c[nH]c3ccc(F)cc23)C(=O)N1CCCN1CC=C(c2c[nH]c3ncccc23)CC1` (stereo not drawn) (as salt: hydrochloride) [Compound 11, 1-(3-(4-(1H-Pyrrolo[2,3-b]pyridin-3-yl)-3,6-dihydropyridin-1(2H)-yl)propyl)-3-(5-fluoro-1H-indol-3-yl)pyrrolidine-2,5-dione], the melting point was in the range of 147 to 150 °C.

`COc1ccc2[nH]cc(C3CC(=O)N(CCCN4CC=C(c5c[nH]c6ccccc56)CC4)C3=O)c2c1` (stereo not drawn) [Compound 17]: the values for the Ki in data set [6] and in data set [7] were 221 ± 11.5 nM and 782 ± 54 nM, respectively.

`O=C1CC(c2c[nH]c3ccccc23)C(=O)N1CCCCN1CC=C(c2c[nH]c3ncccc23)CC1` (stereo not drawn) (as salt: hydrochloride) [Compound 4, 1-(4-(4-(1H-Pyrrolo[2,3-b]pyridin-3-yl)-3,6-dihydropyridin-1(2H)-yl)butyl)-3-(1H-indol-3-yl)pyrrolidine-2,5-dione] showed a melting point of 172 to 177 °C.

As for `O=C1CC(c2c[nH]c3ccccc23)C(=O)N1CCN1CC=C(c2c[nH]c3ncccc23)CC1` (stereo not drawn) [Compound 6, 1-(2-(4-(1H-Pyrrolo[2,3-b]pyridin-3-yl)-3,6-dihydropyridin-1(2H)-yl)ethyl)-3-(1H-indol-3-yl)pyrrolidine-2,5-dione], the Ki in data set [3] is 367 ± 55.2 nM; in data set [5], 916 ± 40.5 nM; in data set [1] (setting [8]), 245 ± 18 nM. In addition, the “hNET screening procedure, displacement %” value in data set [4] was 37% ^a. In addition, the “Selectivity Ratio hDAT/hSERT” value in data set [5] was found to be 3.7.

For `O=C1CC(c2c[nH]c3ccccc23)C(=O)N1CCCN1CC=C(c2c[nH]c3ncccc23)CC1` (stereo not drawn) [Compound 5, 1-(3-(4-(1H-Pyrrolo[2,3-b]pyridin-3-yl)-3,6-dihydropyridin-1(2H)-yl)propyl)-3-(1H-indol-3-yl)pyrrolidine-2,5-dione], the figures for the Ki in data set [1] and in data set [2] were 57.1 ± 3.2 nM and 2450 ± 24 nM, respectively.
